Source: patent US20240099989A1, “AGENT FOR PREVENTING OR IMPROVING PERIPHERAL NEUROPATHY” (KINKI UNIVERSITY, priority 2021, published 2024)
Read-outs that look alike come from different tables or passages of the source.

How the values were obtained:
[1] = tested on: Peripheral Neuropathy in a Mouse Caused by Bortezomib; type: in vivo, Balb/c mice; conditions: 1 mg/kg bortezomib + 100 mg/kg orally daily from Day 6 (therapy); from Day 12 onwards
From the text: (§1) Six to seven-week-old female Balb/c mice were used for the tests. All the mice were acclimated for seven days after arrival. Then, the mice were grouped into the following four groups: a control group, a group receiving bortezomib, a group receiving xylitol, and a group receiving bortezomib and xylitol (a group receiving bortezomib+xylitol). Each group consisted of five mice.
(§2) On Day 8 of acclimation, the mice in the group receiving bortezomib and the group receiving bortezomib+xylitol were intraperitoneally administered with bortezomib at a dose of 1 mg/kg. This day was designated as Day 0 of administration. Thereafter, these mice were intraperitoneally administered with bortezomib at a daily dose of 1 mg/kg on Day 7 and Day 14.
The mice in the group receiving xylitol and the group receiving bortezomib+xylitol were orally administered with xylitol at a dose of 5 mg/kg daily from Day 0.
The mice in the four groups described in (10) of the present example (Example 1) were placed in a cage, and the avoidance response frequency (score) was measured by pressing a filament with a bending force of 0.16 g against the back of the hind paw.
as §1, with “tests as with Example 1.” for “tests.”, “mice. […]” for “mice.”
For the mice in the four groups described in (12) of the present example (Example 2), the avoidance response frequency (score) was measured by pressing a filament with a bending force of 0.16 g against the back of the hind paw. […]
The mice in the four groups described in (10) of the present example (Example 3) were placed in a cage, and the avoidance response frequency (score) was measured by pressing a filament with a bending force of 0.16 g against the back of the hind paw. […]

[2] = tested on: Peripheral Neuropathy in a Mouse Caused by Paclitaxel; type: in vivo, Balb/c mice
From the text: as §1, with “tests as with Example 1.” for “tests.”, “paclitaxel,” for “bortezomib,”, “paclitaxel” for “bortezomib”, “paclitaxel+xylitol).” for “bortezomib+xylitol).”
On Day 8 of acclimation, the mice in the group receiving paclitaxel and the group receiving paclitaxel+xylitol were intraperitoneally administered with paclitaxel at a dose of 6 mg/kg. This day was designated as the first day of the administration (Day 0). Thereafter, these mice were intraperitoneally administered with paclitaxel at the same dose on Day 7 and Day 14 for a total of 3 doses.
The mice in the group receiving 100 mg/kg xylitol were orally administered with xylitol at a dose of 100 mg/kg daily from Day 0. The mice in the group receiving paclitaxel+100 mg/kg xylitol were orally administered with xylitol at a dose of 100 mg/kg daily from Day 6 of administration.
A test was performed on the mice in the four groups described in (6) of the present example (Example 2) to examine the effect of xylitol on paresthesia that is caused by a low temperature stimulus. The mice in respective groups were placed on a cold plate set at 10° C., and withdrawal response time (latent time) was measured. It is presumed that a shorter latent time reflects a greater degree of shunning the low temperature stimulus by the cold plate. […]
The mice in the group receiving 100 mg/kg D-threitol were orally administered with D-threitol at a dose of 100 mg/kg daily from Day 0. The mice in the group receiving paclitaxel+100 mg/kg D-threitol were orally administered with D-threitol at a dose of 100 mg/kg daily from Day 6 of administration.
A test was performed on the mice in the four groups described in (4) of the present example (Example 4) to examine the effect of D-threitol on paresthesia that is caused by a low temperature stimulus. The mice in respective groups were placed on a cold plate set at 10° C., and withdrawal response time (latent time) was measured. It is presumed that a shorter latent time reflects a greater degree of shunning the low temperature stimulus by the cold plate.
as §1, with “tests as with Example 1.” for “tests.”, “paclitaxel,” for “bortezomib,”, “L-talitol,” for “xylitol,”, “paclitaxel” for “bortezomib”, “L-talitol” for “xylitol”, “paclitaxel+L-talitol).” for “bortezomib+xylitol).”
as §2, with “receiving paclitaxel” for “receiving bortezomib”, “receiving paclitaxel+L-talitol” for “receiving bortezomib+xylitol”, “with paclitaxel” for “with bortezomib”, “of 6” for “of 1”
The mice in the group receiving L-talitol and the group receiving paclitaxel+L-talitol were orally administered with L-talitol at a dose of 5 mg/kg daily from Day 0.
A cold plate test was performed to examine the effect of L-talitol on paresthesia that is caused by a low temperature stimulus. The mice in the four groups described in (4) of the present example (Example 5) were placed on a cold plate set at 10° C., and withdrawal response time (latent time) was measured. It is presumed that a shorter latent time reflects a greater degree of shunning the low temperature stimulus by the cold plate.
On Day 8 of acclimation, the mice in the group receiving paclitaxel and the group receiving paclitaxel+L-talitol were intraperitoneally administered with paclitaxel at a dose of 6 mg/kg. This day was designated as the first day of the administration (Day 0). […]

[3] = 6 mg/kg paclitaxel + 5 mg/kg test substance orally daily from Day 0 (prevention)
[4] = 6 mg/kg paclitaxel + 100 mg/kg orally daily from Day 6, on Day 12, vs group receiving 6 mg/kg paclitaxel

SMILES	avoidance response score [1]	withdrawal response time (latent time) [2, 3]	withdrawal response time (latent time) [2, 4]
OC[C@@H](O)[C@H](O)CO [D-threitol]	maintained a score clearly lower than that of the group receiving bortezomib	approximately similar to that of the control group	significantly longer withdrawal response time
OC[C@H](O)[C@H](O)[C@H](O)[C@@H](O)CO [L-talitol]	maintained a score clearly lower than that of the group receiving bortezomib	approximately similar to that of the control group	significantly longer withdrawal response time
OC[C@@H](O)[C@H](O)[C@@H](O)CO [xylitol]	maintained a score clearly lower than that of the group receiving bortezomib	approximately similar to that of the control group	significantly longer withdrawal response time
